From the supplement of paper PMC8183993
Structures can show the parent of a compound that is named as a salt.

What was measured:
Settings in all cases: 24 h
U2OS [1] = test: mean OPP incorporation (global translation) relative to DMSO (% of DMSO); higher = more protein synthesis
Protocol: (§1)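 Validation screen in U2OS cells: hits tested at 1, 3 and 10 uM for 24 h in duplicate plates. Translation was read by OPP incorporation (1 h pulse) and HPG incorporation (30 min in methionine-free medium), quantified by high-throughput microscopy alongside nuclei counts. All values are normalised to DMSO (= 100).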

U2OS [2] = test: nuclei count in HPG assay relative to DMSO (% of DMSO); higher = more viable cells
Protocol: as §1

U2OS [3] = test: mean HPG incorporation (global translation) relative to DMSO (% of DMSO); higher = more protein synthesis
Protocol: as §1

U2OS [4] = test: nuclei count in OPP assay relative to DMSO (% of DMSO); higher = more viable cells
Protocol: as §1

Compound | mean OPP incorporation (U2OS [1]; 1 µM) | mean OPP incorporation (U2OS [1]; 3 µM) | mean OPP incorporation (U2OS [1]; 10 µM) | nuclei count in HPG assay (U2OS [2]; 1 µM) | nuclei count in HPG assay (U2OS [2]; 3 µM) | nuclei count in HPG assay (U2OS [2]; 10 µM) | mean HPG incorporation (U2OS [3]; 1 µM) | mean HPG incorporation (U2OS [3]; 3 µM) | mean HPG incorporation (U2OS [3]; 10 µM) | nuclei count in OPP assay (U2OS [4]; 1 µM) | nuclei count in OPP assay (U2OS [4]; 3 µM) | nuclei count in OPP assay (U2OS [4]; 10 µM)
C=CC[C@@H]1/C=C(\C)C[C@H](C)C[C@H](OC)[C@H]2O[C@@](O)(C(=O)C(=O)N3CCCC[C@H]3C(=O)O[C@H](/C(C)=C/[C@@H]3CC[C@@H](O)[C@H](OC)C3)[C@H](C)[C@@H](O)CC1=O)[C@H](C)C[C@@H]2OC [FK-506 (Tacrolimus)] | 115 | 123 | 134 | 102 | 98.7 | 99.9 | 121 | 125 | 133 | 98.7 | 100 | 93.3
Cc1c(-c2ccc(O)cc2)n(Cc2ccc(OCCN3CCCCCC3)cc2)c2ccc(O)cc12 [Bazedoxifene HCl] | 109 | 121 | 133 | 103 | 98.5 | 80.3 | 84.1 | 84.9 | 85.2 | 96.8 | 86.5 | 77.9
Cc1cn(-c2cc(NC(=O)c3ccc(C)c(Nc4nccc(-c5cccnc5)n4)c3)cc(C(F)(F)F)c2)cn1 [Nilotinib (AMN-107)] | 112 | 120 | 116 | 101 | 91.3 | 98.5 | 95 | 93.5 | 92.5 | 96.6 | 94.2 | 80.2
O=c1cc(N2CCOCC2)oc2c(-c3cccc4c3sc3ccccc34)cccc12 | 92.6 | 107 | 104 | 96.8 | 89.5 | 79.6 | 66.7 | 74.8 | 61.8 | 97.4 | 87.4 | 89.1
CC[C@@H]1/C=C(\C)C[C@H](C)C[C@H](OC)[C@H]2O[C@@](O)(C(=O)C(=O)N3CCCC[C@H]3C(=O)O[C@H](/C(C)=C/[C@@H]3CC[C@H](Cl)[C@H](OC)C3)[C@H](C)[C@@H](O)CC1=O)[C@H](C)C[C@@H]2OC [Pimecrolimus] | 125 | 123 | 124 | 103 | 101 | 92.5 | 108 | 113 | 99.6 | 101 | 106 | 95.5
Cc1cc(CS(=O)(=O)c2ccccc2)cc(OCc2ccc(CN3CCC[C@@H]3CO)cc2)c1 [PF-543] | 111 | 117 | 130 | 102 | 99.2 | 92.2 | 97.1 | 81.9 | 89.6 | 104 | 98.9 | 94.3
CC(C)(C)c1nc(-c2cccc(NS(=O)(=O)c3c(F)cccc3F)c2F)c(-c2ccnc(N)n2)s1 | 102 | 97.2 | 114 | 96.6 | 100 | 104 | 50.8 | 48 | 106 | 101 | 102 | 104
C[C@@H]1CN(CC(=O)Nc2ccc3c(c2)Cc2cccc(-c4cc(=O)cc(N5CCOCC5)o4)c2S3)C[C@H](C)O1 | 103 | 108 | 102 | 98.7 | 89.5 | 81.6 | 70.2 | 64.9 | 55 | 96.9 | 88 | 92.3
CNC(=O)c1cccc(-c2ccc3c(N4CCOC[C@@H]4C)nc(N4CCOC[C@@H]4C)nc3n2)c1 [AZD2014] | 57.6 | 36.3 | 35.6 | 84.1 | 78 | 75 | 44.3 | 36.7 | 34.8 | 85.4 | 79.4 | 72.2
CC(=O)O[C@@H]1C[C@H]2C(C)(C)C(=O)C=C[C@]2(C)[C@H]2CC[C@@]3(C)[C@H](c4ccoc4)OC(=O)[C@H]4O[C@]43[C@@]21C [Gedunin] | 112 | 114 | 115 | 103 | 101 | 94.7 | 91.2 | 88.7 | 66.3 | 97.7 | 96.4 | 95.9
CC(C)n1nc(-c2cc3cc(O)ccc3[nH]2)c2c(N)ncnc21 [Torkinib (PP242)] | 58.4 | 37.4 | 27.3 | 96.6 | 83 | 76.6 | 42.9 | 32.7 | 30.9 | 96 | 81.7 | 74.7
COc1nc(-c2ccc3c(c2)OCO3)n(-c2ccc(NC(=O)CSc3ccccc3)cc2)n1 [SecinH3] | 106 | 117 | 121 | 107 | 96.8 | 100 | 107 | 100 | 93.3 | 105 | 105 | 98.9
CCn1c(-c2nonc2N)nc2cnc(Oc3cccc(NC(=O)c4ccc(OCCN5CCOCC5)cc4)c3)cc21 | 97.1 | 97.5 | 97.5 | 99 | 96.3 | 76.4 | 73.1 | 71.8 | 76.4 | 102 | 101 | 82.6
CCN(CC)CCOc1ccc(C(=C(Cl)c2ccccc2)c2ccccc2)cc1 [Clomiphene citrate (Z,E)] | 116 | 124 | 136 | 91.3 | 95.3 | 86.7 | 90.2 | 115 | 123 | 88 | 98.6 | 93.3
